Assay results reported in patent US9371358B2 (priority 2010, dated 2016).
Like-named read-outs stand apart in the source and are kept apart here.

Columns and labels:
[1] = test system: Human prostate cancer cell line (PC-3); test: MTT cell proliferation assay, cytotoxicity and GI50, PC-3; settings: read-out: Cytotoxic activity (GI50 Values) PC-3
Protocol: Cell Culture and Cytotoxicity:
(§1) Human prostate cancer cell line (PC-3) and human colon cancer cell line (HT-29) were obtained from the German Collection of Microorganisms. All cell lines were cultivated under conditions recommended by their respective depositors. […] For PC-3 cell lines 500 cells per well and for HT-29 cell lines 1500-2000 cells per well were seeded overnight into 96-well cell culture plates (TPP, Trasadingen, Switzerland) and exposed to serial dilutions of each inhibitor for 3 days. Formazan salt formation was measured at 490 nm using an enzyme-linked immunosorbent assay (ELISA) reader (DYNEX technologies MRX TC II). From each compound four independent replicates were prepared.

[2] = test system: human colon cancer cell line (HT-29); test: MTT cell proliferation assay, cytotoxicity and GI50, HT-29; settings: read-out: Cytotoxic activity (GI50 Values) HT-29
Protocol: Cell Culture and Cytotoxicity:
as §1

Structure (SMILES)	GI50 ([1]; PC-3 cells, exposed 3 days, MTT, four independent replicates)	GI50 ([2]; HT-29 cells, exposed 3 days, MTT, four independent replicates)	GI50 ([1]; Homo sapiens, PC-3, 72 h)	GI50 ([2]; Homo sapiens, HT-29, 72 h)
CC[C@H](C)[C@H](NC(=O)[C@H]1CCCCN1C)C(=O)N(COC(=O)CC(C)C)[C@H](C[C@@H](OC(C)=O)c1nc(C(=O)N[C@@H](Cc2ccc(O)cc2)C[C@H](C)C(=O)O)cs1)C(C)C [tubulysin A, reference compound]	0.21 nM	0.32 nM		
CCCCNC(=O)C(C)N(C(=O)[C@@H](NC(=O)[C@H]1CCCCN1C)[C@@H](C)CC)[C@H](C[C@@H](OC(C)=O)c1nc(C(=O)N[C@@H](Cc2ccccc2)C[C@H](C)C(=O)O)cs1)C(C)C (stereo partly shown) [tubugi D]			0.22 nM	0.56 nM
CCCCNC(=O)CN(C(=O)[C@@H](NC(=O)[C@H]1CCCCN1C)[C@@H](C)CC)[C@H](C[C@@H](OC(C)=O)c1nc(C(=O)N[C@@H](Cc2ccccc2)C[C@H](C)C(=O)O)cs1)C(C)C [tubugi A]			0.23 nM	0.14 nM
CC[C@H](C)[C@H](NC(=O)[C@H]1CCCCN1C)C(=O)N(CC(=O)NC(C)C)[C@H](C[C@@H](OC(C)=O)c1nc(C(=O)N[C@@H](Cc2ccccc2)C[C@H](C)C(=O)O)cs1)C(C)C [tubugi B]			0.29 nM	0.34 nM
CC(=O)O[C@H]1C(=O)[C@@]2(C)[C@H]([C@H](OC(=O)c3ccccc3)[C@]3(O)C[C@H](OC(=O)[C@H](O)[C@@H](NC(=O)c4ccccc4)c4ccccc4)C(C)=C1C3(C)C)[C@]1(OC(C)=O)CO[C@@H]1C[C@@H]2O [taxol, reference compound]			7.2 nM	5.3 nM
